# Assay results reported in patent publication US20260001871A1, “TRIAZOLE DERIVATIVES AS MODULATORS OF MAS-RELATED G-PROTEIN RECEPTOR D” (ESCIENT PHARMACEUTICALS, INC., priority 2022, published 2026).
# Molecular target: human MRGPRD (Homo sapiens, UniProt Q8TDS7)
# Assay: MRGPRD antagonist activity, IP-One HTRF assay in CHO cells stably expressing human MRGPRD (versus 100 μM β-Alanine agonist)
# Assay type: cell-based
# Outline: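 IP-1 HTRF read-out, with IC50 from HTRF ratio curves and percent antagonism relative to maximal efficacy (mean, SEM). Antagonists and agonist were co-incubated 1 h at 37 °C plus 1 h at room temperature on overnight-plated MRGPRD-CHO cells in LiCl-containing Tris buffer, pH 8.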
# Sequence of human MRGPRD (Q8TDS7 whole entry): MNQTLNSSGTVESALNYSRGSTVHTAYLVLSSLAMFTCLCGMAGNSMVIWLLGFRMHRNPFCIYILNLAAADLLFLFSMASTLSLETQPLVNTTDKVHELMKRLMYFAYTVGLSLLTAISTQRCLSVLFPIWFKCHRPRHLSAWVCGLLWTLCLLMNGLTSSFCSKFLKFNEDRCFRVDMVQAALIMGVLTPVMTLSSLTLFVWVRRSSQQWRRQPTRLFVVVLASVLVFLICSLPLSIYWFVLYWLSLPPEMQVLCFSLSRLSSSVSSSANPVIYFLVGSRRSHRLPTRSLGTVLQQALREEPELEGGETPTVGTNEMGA
row,Compound,IC50 [nM]
1,"Cc1cc(NC(=O)c2nnn(-c3ccc(-c4c(C)nn(CC(F)(F)F)c4C)cc3)c2C2CC2)ccn1 [Compound 20-1, 5-cyclopropyl-1-(4-(3,5-dimethyl-1-(2,2,2-trifluoroethyl)-1H-pyrazol-4-yl)phenyl)-N-(2-methylpyridin-4-yl)-1H-1,2,3-triazole-4-carboxamide]",< 100
2,"Cc1ccc(CNC(=O)c2nnn(-c3ccc(-c4c(C)nn(C)c4C)cc3F)c2C2CC2)cn1 [Compound 21-1, 5-cyclopropyl-1-(2-fluoro-4-(1,3,5-trimethyl-1H-pyrazol-4-yl)phenyl)-N-((6-methylpyridin-3-yl)methyl)-1H-1,2,3-triazole-4-carboxamide]",< 100
3,COc1cc(-c2c(C)nn(C)c2C)ccc1-n1nnc(C(=O)NCc2ccc(C)nc2)c1C1CC1 [Compound 21-2],100 to 500
4,"Cc1cc(NC(=O)c2nnn(-c3ccc(-c4ccc(C#N)cc4)cc3F)c2C2CC2)ccn1 [Compound 22-1, 1-(4′-cyano-3-fluoro-[1,1′-biphenyl]-4-yl)-5-cyclopropyl-N-(2-methylpyridin-4-yl)-1H-1,2,3-triazole-4-carboxamide]",100 to 500
5,N#Cc1ccc(-c2ccc(-n3nnc(C(=O)NC4(c5cccnc5)CC4)c3C3CC3)c(F)c2)cc1 [Compound 22-2],500 to 1000

# More lines, now with the values ahead:
row,IC50 [nM],Compound
1,1000 to 3000,CCn1cc(CNC(=O)c2nnn(-c3ccc(-c4ccc(C#N)cc4)cc3F)c2C2CC2)cn1 [Compound 22-3]
2,1000 to 3000,CCn1cc(CNC(=O)c2nnn(-c3ccc(-c4ccc(C#N)cc4)cn3)c2C2CC2)cn1 [Compound 22-4]
3,100 to 500,"Cc1cc(NC(=O)c2nnn(C3CC=C(c4ccc(C#N)cc4)CC3)c2C2CC2)ccn1 (centres unmarked) [Compound 23-1, 1-(4′-cyano-2,3,4,5-tetrahydro-[1,1′-biphenyl]-4-yl)-5-cyclopropyl-N-(2-methylpyridin-4-yl)-1H-1,2,3-triazole-4-carboxamide]"
4,1000 to 3000,"Cc1ccc(-n2nnc(C(=O)Nc3ccnc(C(F)(F)F)c3)c2C(C)C)cc1 [Compound 24-1, 5-isopropyl-1-(p-tolyl)-N-(2-(trifluoromethyl)pyridin-4-yl)-1H-1,2,3-triazole-4-carboxamide]"
5,1000 to 3000,"CC(=O)c1cccc(-c2cc(-n3nnc(C(=O)Nc4ccncc4)c3C3CC3)ccc2-c2c(C)nn(C)c2C)c1 [Compound 25-1, 1-(3′-acetyl-6-(1,3,5-trimethyl-1H-pyrazol-4-yl)-[1,1′-biphenyl]-3-yl)-5-cyclopropyl-N-(pyridin-4-yl)-1H-1,2,3-triazole-4-carboxamide]"
6,1000 to 3000,CCO/C=C/c1cc(-n2nnc(C(=O)Nc3ccncc3)c2C2CC2)ccc1-c1c(C)nn(C)c1C [Compound 25-2]
